# Laboratory results taken from ChEMBL document CHEMBL4406827, “Novel 4-quinoline-thiosemicarbazone derivatives: Synthesis, antiproliferative activity, in vitro and in silico biomacromolecule interaction studies and topoisomerase inhibition” (Eur J Med Chem, 2019).
# The source made the active and inactive calls. The calls are words filed in the database; no cut-off is given here.
# Experiments:
# Calf thymus DNA [1] = test: Binding affinity to calf thymus DNA assessed as hyperchromicity at 30 uM incubated for 10 mins by UV-Vis absorption spectroscopic method relative to control; assay type: nucleic-acid assay; details: Bos taurus
# Calf thymus DNA [2] = test: Binding affinity to calf thymus DNA assessed as binding constant incubated for 10 mins by UV-Vis absorption spectroscopic method; assay type: nucleic-acid assay; details: Bos taurus
# Calf thymus DNA [3] = test: Binding affinity to calf thymus DNA assessed as fold change in hypochromicity at 10 uM by fluorescence emission spectrum analysis relative to control; assay type: nucleic-acid assay; details: Bos taurus
# Calf thymus DNA [4] = test: Binding affinity to calf thymus DNA assessed as DNA spectral changes at 30 uM incubated for 10 mins by circular dichroism method; assay type: nucleic-acid assay; details: Bos taurus
# Salmon testes DNA = test: Binding affinity to salmon sperm […] DNA assessed as DNA intercalation by measuring increase in viscosity at 12 to 60 uM by viscometric method; assay type: nucleic-acid assay; details: Salmonidae
# Albumin [5] = molecular target: T1, Albumin (Bos taurus, UniProt P02769); test: Binding affinity to bovine serum albumin assessed as hyperchromicity at 5 to 40 uM incubated for 10 mins by UV-Vis absorption spectroscopic method relative to control; assay type: ADME; details: cattle, isolated protein
# Albumin [6] = molecular target: T1, Albumin; test: Binding affinity to bovine serum albumin assessed as binding constant incubated for 10 mins by UV-Vis absorption spectroscopic method; assay type: ADME; details: cattle, isolated protein
# Albumin [7] = molecular target: T1, Albumin; test: Binding affinity to bovine serum albumin assessed as hypochromicity at 5 to 40 uM by fluorescence emission spectrum analysis method relative to control; assay type: ADME; details: cattle, isolated protein
# Albumin [8] = molecular target: T1, Albumin; test: Binding affinity to bovine serum albumin assessed as Stem-Volmer quenching constant incubated for 10 mins by fluorescence emission spectrum analysis; assay type: ADME; details: cattle, isolated protein
# [9] = Cytotoxicity against mouse RAW264.7 cells assessed as reduction in cell viability incubated for 48 hrs by MTT assay; assay type: cell-based
# MCF7 = test: Cytotoxicity against human MCF7 cells assessed as reduction in cell viability incubated for 48 hrs by MTT assay; assay type: functional, cell-based; details: MCF7, 48 h
# T47D = test: Cytotoxicity against human T47D cells assessed as reduction in cell viability incubated for 48 hrs by MTT assay; assay type: functional, cell-based
# [10] = Selectivity index, ratio of CC50 for mouse RAW264.7 cells to ratio of IC50 for human MCF7 cells; assay type: toxicity; details: RAW264.7 cells and MCF7 cells, read-out: Ratio CC50/IC50
# [11] = Selectivity index, ratio of CC50 for mouse RAW264.7 cells to ratio of IC50 for human T47D cells; assay type: toxicity; details: RAW264.7 cells and T47D cells, read-out: Ratio CC50/IC50
# [12] = molecular target: DNA topoisomerase 2-alpha (Homo sapiens) (UniProt P11388); test: Inhibition of recombinant human topoisomerase 2alpha using supercoiled pUC19 plasmid DNA as substrate at 10 uM incubated for 45 mins by ethidium bromide dye based agarose gel electrophoresis method
# Calf thymus DNA [13] = test: Binding affinity to calf thymus DNA assessed as hypsochromic shift at 10 uM by fluorescence emission spectrum analysis; assay type: nucleic-acid assay; details: Bos taurus
# Calf thymus DNA [14] = test: Binding affinity to calf thymus DNA assessed as hypsochromic shift at 30 uM incubated for 10 mins by UV-Vis absorption spectroscopic method; assay type: nucleic-acid assay; details: Bos taurus
# Albumin [15] = molecular target: T1, Albumin; test: Binding affinity to bovine serum albumin assessed as hypsochromic shift at 5 to 40 uM by fluorescence emission spectrum analysis method; assay type: ADME; details: cattle, isolated protein
# Calf thymus DNA [16] = test: Binding affinity to calf thymus DNA assessed as hypochromicity at 30 uM incubated for 10 mins by UV-Vis absorption spectroscopic method relative to control; assay type: nucleic-acid assay; details: Bos taurus
# Calf thymus DNA [17] = test: Binding affinity to calf thymus DNA assessed as fold change in hyperchromicity at 10 uM by fluorescence emission spectrum analysis relative to control; assay type: nucleic-acid assay; details: Bos taurus
# Calf thymus DNA [18] = test: Binding affinity to calf thymus DNA assessed as bathochromic shift at 30 uM incubated for 10 mins by UV-Vis absorption spectroscopic method; assay type: nucleic-acid assay; details: Bos taurus
# Calf thymus DNA [19] = test: Binding affinity to calf thymus DNA assessed as DNA spectral changes by measuring decrease in positive band at 274 nm at 30 uM incubated for 10 mins by circular dichroism method; assay type: nucleic-acid assay; details: Bos taurus
# Calf thymus DNA [20] = test: Binding affinity to calf thymus DNA assessed as DNA spectral changes by measuring increase in negative band at 245 nm at 30 uM incubated for 10 mins by circular dichroism method; assay type: nucleic-acid assay; details: Bos taurus
# Albumin [21] = molecular target: T1, Albumin; test: Binding affinity to bovine serum albumin assessed as hypsochromic shift at 5 to 40 uM incubated for 10 mins by UV-Vis absorption spectroscopic method relative to control; assay type: ADME; details: cattle, isolated protein
# Sequence of DNA topoisomerase 2-alpha (Homo sapiens) (P11388 whole entry): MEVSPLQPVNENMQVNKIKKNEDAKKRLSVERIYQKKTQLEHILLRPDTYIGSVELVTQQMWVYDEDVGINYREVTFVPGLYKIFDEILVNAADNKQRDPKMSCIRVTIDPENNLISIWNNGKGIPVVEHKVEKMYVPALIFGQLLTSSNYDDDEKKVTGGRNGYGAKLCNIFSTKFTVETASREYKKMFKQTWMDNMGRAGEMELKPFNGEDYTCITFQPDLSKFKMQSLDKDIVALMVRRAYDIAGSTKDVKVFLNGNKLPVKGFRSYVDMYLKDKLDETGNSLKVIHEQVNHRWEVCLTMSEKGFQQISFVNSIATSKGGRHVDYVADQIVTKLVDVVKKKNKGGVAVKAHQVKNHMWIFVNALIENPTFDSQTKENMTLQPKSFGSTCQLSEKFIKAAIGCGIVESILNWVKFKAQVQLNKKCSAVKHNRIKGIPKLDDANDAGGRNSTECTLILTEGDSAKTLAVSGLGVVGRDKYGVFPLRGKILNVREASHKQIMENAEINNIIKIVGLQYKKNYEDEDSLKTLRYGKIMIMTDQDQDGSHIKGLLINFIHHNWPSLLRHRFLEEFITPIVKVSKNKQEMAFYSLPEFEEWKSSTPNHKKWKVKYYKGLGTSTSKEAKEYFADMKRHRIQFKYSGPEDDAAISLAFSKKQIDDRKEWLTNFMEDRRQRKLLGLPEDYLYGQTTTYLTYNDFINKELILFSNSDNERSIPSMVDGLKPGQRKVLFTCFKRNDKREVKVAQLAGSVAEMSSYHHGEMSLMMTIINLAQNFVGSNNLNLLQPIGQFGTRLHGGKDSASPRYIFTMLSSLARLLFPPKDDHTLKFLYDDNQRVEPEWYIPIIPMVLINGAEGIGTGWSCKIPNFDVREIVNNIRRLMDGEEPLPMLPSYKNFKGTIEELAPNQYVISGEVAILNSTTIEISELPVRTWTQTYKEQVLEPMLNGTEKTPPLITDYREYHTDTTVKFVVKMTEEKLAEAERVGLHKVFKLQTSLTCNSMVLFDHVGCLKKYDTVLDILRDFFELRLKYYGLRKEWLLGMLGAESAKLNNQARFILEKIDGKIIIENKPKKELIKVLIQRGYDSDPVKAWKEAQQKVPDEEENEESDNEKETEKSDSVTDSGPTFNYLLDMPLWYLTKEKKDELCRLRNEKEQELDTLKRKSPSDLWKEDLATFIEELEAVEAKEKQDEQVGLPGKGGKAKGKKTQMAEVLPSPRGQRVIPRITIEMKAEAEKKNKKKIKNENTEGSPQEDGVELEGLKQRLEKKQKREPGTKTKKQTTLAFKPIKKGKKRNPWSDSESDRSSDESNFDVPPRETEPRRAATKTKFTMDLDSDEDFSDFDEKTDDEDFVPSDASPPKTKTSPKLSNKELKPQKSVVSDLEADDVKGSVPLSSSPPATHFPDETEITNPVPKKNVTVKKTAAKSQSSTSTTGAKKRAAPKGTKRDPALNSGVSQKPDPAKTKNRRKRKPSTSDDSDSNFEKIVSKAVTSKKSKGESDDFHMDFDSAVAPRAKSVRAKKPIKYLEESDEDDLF
# T1 sequence (P02769 whole entry): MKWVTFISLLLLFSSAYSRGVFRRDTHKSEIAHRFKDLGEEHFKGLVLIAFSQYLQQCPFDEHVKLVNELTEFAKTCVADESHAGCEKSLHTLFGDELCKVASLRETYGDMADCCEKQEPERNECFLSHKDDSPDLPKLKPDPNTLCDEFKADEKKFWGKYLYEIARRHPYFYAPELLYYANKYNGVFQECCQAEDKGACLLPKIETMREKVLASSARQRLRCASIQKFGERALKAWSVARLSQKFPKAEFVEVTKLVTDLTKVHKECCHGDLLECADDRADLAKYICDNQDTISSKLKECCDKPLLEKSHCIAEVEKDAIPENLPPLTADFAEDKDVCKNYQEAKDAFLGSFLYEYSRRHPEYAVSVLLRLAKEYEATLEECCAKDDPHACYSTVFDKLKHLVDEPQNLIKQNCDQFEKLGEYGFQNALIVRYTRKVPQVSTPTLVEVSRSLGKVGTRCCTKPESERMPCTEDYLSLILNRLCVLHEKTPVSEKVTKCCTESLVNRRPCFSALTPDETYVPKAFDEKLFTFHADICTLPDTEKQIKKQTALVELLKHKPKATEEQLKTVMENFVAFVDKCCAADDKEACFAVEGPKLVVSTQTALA
Compound,Activity (Calf thymus DNA [1]) [%],Kb (Calf thymus DNA [2]),fold change (FC) (Calf thymus DNA [3]),Activity (Calf thymus DNA [4]),Activity (Salmon testes DNA),Activity (Albumin [5]) [%],Kb (Albumin [6]),Activity (Albumin [7]) [%],KSV (Albumin [8]) [×10⁴ /M],CC50 at 48 h [9] [nM],IC50 (MCF7) [nM],IC50 (T47D) [nM],selectivity ratio [10],selectivity ratio [11],inhibition [12],Activity (Calf thymus DNA [13]),Activity (Albumin [15]),Activity (Calf thymus DNA [16]) [%],other results
COc1ccc(NC(=S)N/N=C\c2ccnc3ccccc23)cc1,59.6,1.33 ×10⁵ /M,11.6,Active,Active,42.61,5.44 ×10⁴ /M,320.04,9.24,101000,990,1360,102,74.6,Active,Active,Active,–,Activity (Calf thymus DNA [14]): Active
S=C(N/N=C\c1ccnc2ccccc12)Nc1ccc(Cl)cc1,–,6.29 ×10⁴ /M,1.88,Active,Active,53.34,1.13 ×10⁵ /M,68.97,6.07,63500,1070,1270,59.3,50,Active,Active,Active,8.51,Activity (Calf thymus DNA [14]): Active
O=[N+]([O-])c1ccc(NC(=S)N/N=C\c2ccnc3ccccc23)cc1,–,2.51 ×10⁴ /M,7.69,Active,Active,43.48,1.03 ×10⁵ /M,132.77,3.82,82500,810,1330,102,62,inactive,–,Active,12.9,Activity (Calf thymus DNA [14]): Active
S=C(N/N=C\c1ccnc2ccccc12)Nc1cccnc1,–,1.96 ×10⁵ /M,–,Active,Active,52.95,8.03 ×10⁴ /M,493.41,3.99,91600,970,1100,94.4,83.3,inactive,–,Active,20.3,fold change (FC) (Calf thymus DNA [17]): 0.89
Fc1ccc(NC(=S)N/N=C\c2ccnc3ccccc23)cc1,15.9,2.37 ×10⁵ /M,3.44,Active,Active,38.74,8.4 ×10⁴ /M,237.42,5.9,45900,1100,1070,41.7,42.9,Active,–,Active,–,–
CNC(=O)c1cccc2c(Nc3ccc(NS(C)(=O)=O)cc3OC)c3cccc(C)c3nc12 [ASULACRINE],–,–,–,–,–,–,–,–,–,31200,–,–,–,–,–,–,–,–,–
C=CCNC(=S)N/N=C\c1ccnc2ccccc12,2.88,3.98 ×10⁴ /M,6.64,Active,Active,52.42,1.44 ×10⁵ /M,371.21,10.39,105000,970,1230,108,85.5,Active,–,Active,–,Activity (Calf thymus DNA [18]): Active
COc1cc(NS(C)(=O)=O)ccc1Nc1c2ccccc2nc2ccccc12 [AMSACRINE],–,–,–,–,Active,–,–,–,–,95500,910,940,105,102,Active,–,–,–,–
S=C(N/N=C\c1ccnc2ccccc12)Nc1cccc2ccccc12,13.9,2.54 ×10⁵ /M,1.67,Active,Active,53.34,1.13 ×10⁵ /M,226.14,6.36,22600,880,1210,25.6,18.6,Active,–,Active,–,–
S=C(N/N=C\c1ccnc2ccccc12)Nc1ccc(Br)cc1,–,7.44 ×10⁴ /M,6.06,Active,Active,56.43,1.17 ×10⁵ /M,508.17,11.2,53500,990,1480,54.1,36.2,Active,–,Active,10.8,Activity (Calf thymus DNA [14]): Active
CCc1ccc(NC(=S)N/N=C\c2ccnc3ccccc23)cc1,51.4,1.62 ×10⁶ /M,4.65,–,Active,69.01,1.43 ×10⁵ /M,601.57,16.05,35700,820,1280,43.6,27.9,inactive,Active,Active,–,Activity (Calf thymus DNA [19]): Active; Activity (Calf thymus DNA [20]): Active; Activity (Calf thymus DNA [18]): Active; Activity (Albumin [21]): Active
S=C(N/N=C\c1ccnc2ccccc12)Nc1ccccc1,–,3.5 ×10⁴ /M,3.72,Active,Active,52.75,7.29 ×10⁴ /M,33.65,11.19,118000,1070,1380,110,85.5,Active,Active,Active,52.3,–
S=C(NCCc1ccccc1)N/N=C\c1ccnc2ccccc12,–,2.42 ×10⁴ /M,5.53,Active,Active,62.54,1.08 ×10⁵ /M,157.14,4.09,33000,1090,1120,30.2,29.4,inactive,–,Active,27.4,–
Cc1ccc(NC(=S)N/N=C\c2ccnc3ccccc23)cc1,11.8,3.56 ×10⁵ /M,2.77,Active,Active,58.04,1.39 ×10⁵ /M,287.44,8.85,50500,980,1320,51.5,38.3,inactive,Active,Active,–,Activity (Calf thymus DNA [18]): Active
